This experiment relates to purified polypeptide (carbonyl reductase) from the Brevundimonas diminuta NBRC 12697 strain. Briefly: Substrate specificity of purified polypeptide: reducing activity against carbonyl compounds (NADH decrease at 340 nm). It counts as biochemical. The note with it: substrate 2 mM, NADH 0.167 mM, 100 mM phosphate buffer pH 6.5, 0.4% (v/v) DMSO, 30° C., 3 minutes; activity against ethyl N-Boc-2-amino-3-cyclohexyl-3-oxopropionate taken as 100%.
For `O=Cc1ccc(Cl)cc1` [p-chlorobenzaldehyde], the relative activity was 445%.

For `CC(C=O)c1ccccc1` (centres unmarked) [2-phenylpropionaldehyde], the relative activity was found to be 621%.

Turning to `CCOC(=O)C1CCCC1=O` (centres unmarked) [Ethyl 2-oxocyclopentanecarboxylate], the relative activity is 199%.

Take `CC(=O)c1ccncc1` [4-acetylpyrridine]: the relative activity amounted to 1149%.

For `CC12CCC(C(=O)C1=O)C2(C)C` (centres unmarked) [camphorquinone], the relative activity came out at 4737%.

For `CC(=O)c1ccccc1Cl` [o-chloroacetophenone], the relative activity is recorded as 350%.

In the case of `CC(=O)CC(C)=O` [acetylacetone], the relative activity is on record as 273%.

Regarding `CCOC(=O)C(NC(=O)OC(C)(C)C)C(=O)C1CCCCC1` (centres unmarked) [Ethyl N-Boc-2-amino-3-cyclohexyl-3-oxopropionate], the relative activity is recorded as 100%.

For the compound `CC(=O)C(C)=O` [diacetyl], the relative activity stood at 4830%.

For `CCCCC(C)=O` [2-hexanone], the relative activity is 1540%.

For the compound `CC(=O)c1cccc(Cl)c1` [m-chloroacetophenone], the relative activity is recorded as 4368%.

On to `CCOC(=O)C(Cl)C(=O)c1ccccc1` (centres unmarked) [Ethyl 2-chloro-3-oxo-3-phenylpropionate], for which the relative activity turned out to be 1139%.

Turning to `O=C(CCl)c1cccc(Cl)c1` [2,3′-dichloroacetophenone], the relative activity was 12719%.

`CC(=O)C=O` [methylglyoxal]: the relative activity turned out to be 248%.

On to `CC(=O)c1ccc(Cl)cc1` [p-chloroacetophenone], for which the relative activity is 534%.

Turning to `O=Cc1cccc(Cl)c1` [m-chlorobenzaldehyde], the relative activity stood at 2138%.

As for `CCOC(=O)CC(=O)CCl` [Ethyl 4-chloroacetoacetate], the relative activity amounted to 533470%.

Turning to `O=C1CCSC1` [tetrahydrothiophen-3-one], the relative activity stood at 156%.

As to `CCOC(=O)C(C)C(C)=O` (centres unmarked) [Ethyl 2-methylacetoacetate], the relative activity is 425%.

Regarding `CCCCCC=O` [n-hexylaldehyde], the relative activity came out at 2160%.

For `CCOC(=O)C(=O)c1ccccc1` [Ethyl benzoylformate], the relative activity is listed as 12198%.

As for `COC(=O)CC(C)=O` [Methyl acetoacetate], the relative activity is reported as 1095%.

Regarding `O=C(CCl)c1ccccc1` [2-chloroacetophenone], the relative activity is 12789%.

On to `CCCC(=O)C(=O)OCC` [Ethyl 2-oxopentanoate], for which the relative activity came out at 6046%.

`O=C(c1ccccc1)C(F)(F)F` [2,2,2-trifluoroacetophenone]: the relative activity is on record as 42277%.

For the compound `O=Cc1ccccc1Cl` [o-chlorobenzaldehyde], the relative activity turned out to be 1219%.

Consider `COC(=O)C(C)=O` [Methyl pyruvate], for which the relative activity came to 5625%.

For the compound `CCOC(=O)C(Cl)C(C)=O` (centres unmarked) [Ethyl 2-chloroacetoacetate], the relative activity is recorded as 7264%.

Consider `CC(=O)c1ccco1` [2-acetylfuran], for which the relative activity is on record as 164%.

Values taken from patent US8304216B2, “Method for production of erythro-or threo-2-amino-3-hydroxypropionic acid ester, novel carbonyl reductase, gene for the reductase, vector, transformant, and method for production of optically active alcohol using those” (Kaneka Corporation, priority 2006, dated 2012).
